Data as given in patent publication US20220411377A1, “SELECTIVE NEURONAL NITRIC OXIDE SYNTHASE INHIBITORS” (Northwestern University, priority 2019, published 2022).
Counter-ions that a name gives are not always drawn. One block for each molecule: values may come before it.

Columns and labels:
[1] = target: T1, human eNOS (heNOS) (Homo sapiens, UniProt P29474); test: Hemoglobin capture assay, purified human eNOS; assay type: biochemical
T1 construct: made in house; host or cells: E. coli

[2] = target: H2 receptor (Homo sapiens, UniProt P25021); test: PDSP off-target profiling, H2 receptor; assay type: binding
[3] = target: human iNOS (hiNOS) (Homo sapiens, UniProt P35228); conditions: read-out: Ki hiNOS; Ki calculated from IC50 (Cheng-Prusoff)
[4] = target: rat nNOS D597N single mutant (Rattus norvegicus, UniProt P29476, D597N)
[5] = target: T2, rat nNOS (rnNOS) (Rattus norvegicus, UniProt P29476); test: Hemoglobin capture assay, purified rat nNOS; assay type: biochemical
T2 construct: made in house; host or cells: E. coli

[6] = target: H3 receptor (Homo sapiens, UniProt Q9Y5N1); test: PDSP off-target profiling, H3 receptor
[7] = tested on: panel of 45 pharmacologically relevant CNS targets and receptors; conditions: for PDSP binding summary: insignificant: 10 µM
[8] = target: rat nNOS M336V/D597N double mutant (Rattus norvegicus, UniProt P29476, D597N/M336V); conditions: versus the single mutant
[9] = PAMPA

H2 receptor, sequence (P25021 whole entry): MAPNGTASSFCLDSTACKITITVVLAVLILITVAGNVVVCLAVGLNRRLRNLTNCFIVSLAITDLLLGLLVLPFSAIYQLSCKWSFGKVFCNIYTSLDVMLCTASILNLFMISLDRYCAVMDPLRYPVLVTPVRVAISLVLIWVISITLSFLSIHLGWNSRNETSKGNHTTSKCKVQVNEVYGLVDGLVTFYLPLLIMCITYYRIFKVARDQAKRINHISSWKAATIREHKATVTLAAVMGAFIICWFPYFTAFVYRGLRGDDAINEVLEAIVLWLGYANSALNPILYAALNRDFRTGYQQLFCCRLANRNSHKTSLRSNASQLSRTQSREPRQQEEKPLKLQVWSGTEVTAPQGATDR
H3 receptor, sequence (Q9Y5N1 whole entry): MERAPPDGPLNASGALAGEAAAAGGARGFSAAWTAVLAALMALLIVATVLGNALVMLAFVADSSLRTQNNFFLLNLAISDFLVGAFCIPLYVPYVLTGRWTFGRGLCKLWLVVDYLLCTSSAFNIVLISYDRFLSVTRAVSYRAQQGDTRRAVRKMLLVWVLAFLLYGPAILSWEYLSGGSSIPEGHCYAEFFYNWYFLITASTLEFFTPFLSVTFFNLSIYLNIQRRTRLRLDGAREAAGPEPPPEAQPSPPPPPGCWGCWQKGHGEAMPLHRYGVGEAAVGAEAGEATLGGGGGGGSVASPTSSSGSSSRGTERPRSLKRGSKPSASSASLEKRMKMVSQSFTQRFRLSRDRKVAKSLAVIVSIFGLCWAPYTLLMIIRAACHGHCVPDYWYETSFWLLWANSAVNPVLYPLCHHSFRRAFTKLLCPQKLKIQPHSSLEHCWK

Molecule: 7-(3-(2-Aminoethyl)phenyl)-4-methylquinolin-2-amine Dihydrochloride [Compound 12]
- Ki ([1]; Ki calculated from IC50): 52.6 µM
- ΔGbind WT heNOS ([1]; obtained from Ki values): -18.8 kJ/mol
- off-target binding classification, H2 receptor [2]: concerning (concerning (Ki<100 nM, or <˜2× nNOS Ki value))
- Ki [3]: 29.9 µM
- ΔGbind hnNOS D597N mutant ([4]; obtained from Ki values): -30.5 kJ/mol
- decrease in potency, D597N mutant ([4]; versus wild type): 8 fold
- % remaining at 60 min (—NADPH) (HLM without NADPH, 60 min): 87%
- % remaining at 60 min (buffer) (buffer control, 60 min): 67%
- t1/2 (half-life in HLM, Dihydrochloride): >1 h
- CLint (in vitro intrinsic clearance, HLM): 0.48 L/h/kg

Molecule: Cc1cc(N)nc2cc(-c3ccc4c(c3)C(N)CC4)ccc12.Cl.Cl (racemic) [Compound 18, 7-(3-Amino-2,3-dihydro-1H-inden-5-yl)-4-methylquinolin-2-amine Dihydrochloride]
- loss in rnNOS potency relative to comparator ([5]; 6 vs 5, 15 and 18 vs 12, 17 vs 7): approximately 3 fold
- Ki ([5]; wild-type rat nNOS, Ki calculated from IC50): 0.18 µM

Molecule: Cc1cc(N)nc2cc(-c3ccc(CN)cc3)ccc12.Cl.Cl [Compound 7, 7-(4-(Aminomethyl)phenyl)-4-methylquinolin-2-amine Dihydrochloride]
- increase in rnNOS activity ([5]; relative to 5): 2.3 fold

Molecule: Cc1cc(N)nc2cc(-c3ccc(OCC4CC4)c(CN)c3)ccc12.Cl.Cl [Compound 29, 7-(3-(Aminomethyl)-4-(cyclopropylmethoxy)phenyl)-4-methylquinolin-2-amine Dihydrochloride]
- off-target binding classification, H3 receptor [6]: concerning (concerning (Ki<100 nM, or <˜2× nNOS Ki value))

Molecule: NCCc1ccc(O)c(O)c1 [dopamine]
- prediction (CNS) [9]: CNS (−)

Results, then the molecule that gave them:

- fraction of concerning or moderate hits [7]: 11/45
- PDSP binding summary: insignificant [7]: 12
Molecule: Cc1cc(N)nc2cc(-c3ccc(OCc4ccccn4)c(CN)c3)ccc12.Cl.Cl.Cl [Compound 32, 7-(3-(Aminomethyl)-4-(pyridin-2-ylmethoxy)phenyl)-4-methylquinolin-2-amine Trihydrochloride]

- improvement in binding affinity toward heNOS ([1]; 33 versus 32): 3 fold
- fraction of concerning or moderate hits [7]: 8/45
- PDSP binding summary: insignificant [7]: 20
Molecule: Cc1cc(N)nc2cc(-c3ccc(OCc4cccnc4)c(CN)c3)ccc12.Cl.Cl.Cl [Compound 33, 7-(3-(Aminomethyl)-4-(pyridin-3-ylmethoxy)phenyl)-4-methylquinolin-2-amine Trihydrochloride]

- increased potency against the double mutant [8]: 5 fold
Molecule: Cc1cc(N)nc2cc(-c3ccc(OCc4cocn4)c(CN)c3)ccc12 [Compound 36, 7-(3-(Aminomethy)-4-(oxazol-4-ylmethoxy)phenyl)-4-methylquinolin-2-amine Trihydrochloride]
